Test results published in patent publication US12187716B2, “TYK2 kinase inhibitors” (SAREUM LIMITED, priority 2018, dated 2025).

Tests used:
[1] = Hepatocyte stability assay, dog; format: in vitro ADME; details: male, Beagle, pooled hepatocytes, 37° C.
Method: (§1) Test and control compounds were incubated with hepatocytes at 37° C. Aliquots were removed at 6 timepoints over a one hour period. Samples were centrifuged and the supernatant fractions analysed for parent compound by mass spectrometry (LC-MS/MS).
(§2) The amount of compound remaining (expressed as %) was determined from the MS response in each sample relative to that in the T=0 samples, and used to determine the half-life and intrinsic clearance of the compound.

[2] = Hepatocyte stability assay, human; format: in vitro ADME, human (mixed gender); details: both sexes, pooled hepatocytes, 37° C.
Method: as §1, §2

hERG potassium channel = target: T1, hERG potassium channel (Homo sapiens, UniProt Q12809); assay: hERG channel inhibition assay (hERG-HEK cells, Sophion Qube); format: cell-based; details: for IC50: hERG-HEK cells, tail current, room temperature; for inhibition at 30 uM: human, hERG-HEK stably transfected cell line, Max Conc. 30 uM
T1 construct: expressed in transfected cells; host or cells: hERG-HEK stably transfected cell line
T1 sequence (Q12809 whole entry): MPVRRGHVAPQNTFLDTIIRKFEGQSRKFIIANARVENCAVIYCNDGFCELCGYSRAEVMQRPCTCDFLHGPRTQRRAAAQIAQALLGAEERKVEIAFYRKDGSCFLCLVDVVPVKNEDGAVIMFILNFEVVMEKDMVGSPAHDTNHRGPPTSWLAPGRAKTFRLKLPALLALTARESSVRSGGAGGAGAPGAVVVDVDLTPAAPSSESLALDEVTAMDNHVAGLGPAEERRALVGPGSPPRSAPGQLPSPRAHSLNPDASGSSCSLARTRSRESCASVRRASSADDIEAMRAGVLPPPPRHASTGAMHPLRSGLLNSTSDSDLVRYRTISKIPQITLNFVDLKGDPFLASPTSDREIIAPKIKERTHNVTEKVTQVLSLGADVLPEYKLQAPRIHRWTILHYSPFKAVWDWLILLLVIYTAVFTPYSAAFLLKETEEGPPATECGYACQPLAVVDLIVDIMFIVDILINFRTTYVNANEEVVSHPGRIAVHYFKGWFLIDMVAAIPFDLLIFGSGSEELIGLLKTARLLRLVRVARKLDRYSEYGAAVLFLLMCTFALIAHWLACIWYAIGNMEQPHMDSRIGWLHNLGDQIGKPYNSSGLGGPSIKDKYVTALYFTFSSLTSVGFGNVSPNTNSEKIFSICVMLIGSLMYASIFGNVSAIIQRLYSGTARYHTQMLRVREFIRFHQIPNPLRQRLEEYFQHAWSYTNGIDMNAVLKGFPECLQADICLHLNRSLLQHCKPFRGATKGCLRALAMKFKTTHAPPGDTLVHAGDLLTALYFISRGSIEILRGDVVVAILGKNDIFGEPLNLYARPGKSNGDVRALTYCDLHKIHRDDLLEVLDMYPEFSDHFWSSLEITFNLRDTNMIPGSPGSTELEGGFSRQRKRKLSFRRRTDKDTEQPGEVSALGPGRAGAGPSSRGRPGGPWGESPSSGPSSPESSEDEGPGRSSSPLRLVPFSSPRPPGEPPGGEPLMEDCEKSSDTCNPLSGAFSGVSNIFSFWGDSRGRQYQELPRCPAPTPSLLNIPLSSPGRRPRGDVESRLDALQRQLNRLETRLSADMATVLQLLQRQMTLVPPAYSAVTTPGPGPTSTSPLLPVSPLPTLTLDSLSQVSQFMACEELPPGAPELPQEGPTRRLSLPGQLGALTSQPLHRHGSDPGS
Method: The potential for compounds to inhibit the hERG potassium channel was determined using a hERG-HEK stably transfected cell line on the Sophion Qube automated electrophysiology platform. The assay was performed at room temperature and recordings of the hERG tail current from individual cells was made using single-hole QChips.
The potency (IC50) of test compounds to inhibit the hERG channel was determined from a concentration-response curve generated from 8 test compound concentrations with up to 4 replicates per concentration.
The compound concentration was added to the test well twice to ensure complete exchange of the external buffer with the test compound. In total, compound was applied to the well for >7 minutes.

JAK2 = JAK2 (Homo sapiens, UniProt O60674); assay: JAK2 kinase inhibition assay (33P-ATP filter binding, Reaction Biology); details: for selectivity for TYK2 compared to JAK2: biochemical assays; for Selectivity v TYK2: JAK2: ratio of JAK2 IC50 to TYK2 IC50
JAK2, sequence (O60674 809-1132): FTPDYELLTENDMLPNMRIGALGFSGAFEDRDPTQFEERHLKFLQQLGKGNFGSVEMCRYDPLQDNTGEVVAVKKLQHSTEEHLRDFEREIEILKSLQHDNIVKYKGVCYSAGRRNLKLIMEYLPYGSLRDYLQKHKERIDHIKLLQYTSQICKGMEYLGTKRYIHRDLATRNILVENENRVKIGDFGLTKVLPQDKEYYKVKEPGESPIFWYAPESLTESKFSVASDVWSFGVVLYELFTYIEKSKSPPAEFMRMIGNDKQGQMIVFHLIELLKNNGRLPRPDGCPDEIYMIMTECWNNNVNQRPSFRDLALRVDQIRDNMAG

SMILES	hepatocyte CLint [1] [µL/min/1e6 cells]	hepatocyte CLint [2] [µL/min/1e6 cells]	IC50 (hERG potassium channel) [µM]	inhibition at 30 uM (hERG potassium channel) [%]	IC50 (JAK2) [nM]	selectivity for TYK2 compared to JAK2 (JAK2)	Selectivity v TYK2: JAK2 (JAK2)	half-life ([1]; read-out: Dog T1/2) [min]	half-life ([2]; read-out: Human T1/2) [min]
NC(=O)c1nc(-c2c(Cl)cccc2Cl)oc1Nc1ccc(C(=O)N2CCOCC2)cc1 [Comparative Compound B, 2-(2,6-dichloro-phenyl)-5-[4-(morpholine-4-carbonyl)-phenylamino]-oxazole-4-carboxylic acid amide, reference compound]	29.8	9	~30	50.5	–	–	–	–	–
NC(=O)c1nc(-c2c(Cl)cccc2Cl)oc1Nc1ccc(C(=O)N2CCS(=O)(=O)CC2)cc1 [Compound (2)]	–	–	> 30	38.6	50	approximately 25 fold	26.3	–	–
NC(=O)c1nc(-c2c(Cl)cccc2Cl)oc1Nc1ccc(C(=O)N2CCS(=O)(=O)CC2)c(F)c1 [Compound (3)]	8.8	4.2	> 30	31.5	153	approximately 32 fold	32.5	185	335
